Laboratory results reported in the NIST ThermoML archive (doi:10.1021/je900596d).

Details: 357.06 K, Fluid (supercritical or subcritical phases), Vibrating tube method

FC(F)=C(F)C(F)(F)F [hexafluoropropene]
Details | mass density [kg/m3]
1651 kPa | 106.72
1667.9 kPa | 108.13
1685.3 kPa | 109.66
1702 kPa | 111.18
1718.9 kPa | 112.75
1735.9 kPa | 114.23
1753 kPa | 115.8
1769.9 kPa | 117.29
1786.9 kPa | 118.92
1803 kPa | 120.39
1819.2 kPa | 121.89
1847.5 kPa | 124.55
1875.7 kPa | 127.36
1903.2 kPa | 130.04
1931.1 kPa | 132.82
1957.3 kPa | 135.5
1986 kPa | 138.47
2038.9 kPa | 144.14
2064.4 kPa | 146.83
2091.5 kPa | 149.92
2116.5 kPa | 152.72
2145.2 kPa | 156.08
2172.7 kPa | 159.34
2200.4 kPa | 162.66
2225 kPa | 165.74
2253.6 kPa | 169.3
2283.1 kPa | 173.12
2311 kPa | 176.88
2341.3 kPa | 180.98
2367.5 kPa | 184.68
2394.8 kPa | 188.59
2419.3 kPa | 192.26
2446.6 kPa | 196.5
2475.8 kPa | 201.14
2500.5 kPa | 205.14
2527.1 kPa | 209.62
2552.5 kPa | 214.03
2579.2 kPa | 218.88
2607.1 kPa | 224.15
2634.5 kPa | 229.51
2660.8 kPa | 234.97
2686.6 kPa | 240.49
2714.4 kPa | 246.83
2743.6 kPa | 253.76
2771 kPa | 260.83
2795.2 kPa | 267.52
2819.6 kPa | 274.69
2846 kPa | 283.07
2871.1 kPa | 291.79
2896.7 kPa | 302.07
2920.7 kPa | 312.54
2945.8 kPa | 324.88
2970.4 kPa | 338.77
2995.1 kPa | 355.46
3000.2 kPa | 359.35
3002.3 kPa | 361.25
3004.8 kPa | 363.25
3007 kPa | 365.19
3009.1 kPa | 367.24
3011.2 kPa | 369.24
3013.5 kPa | 371.38
3017.2 kPa | 375.58
3020.4 kPa | 379.51
3023.1 kPa | 383.27
3025.3 kPa | 386.99
3027.3 kPa | 391.04
